Usually Ki stands for a dissociation constant, usually derived from enzyme kinetics or from competition with a known ligand.

39 molecules from US9283222B2 (priority 2006, dated 2016) can be followed below.

Molecules are shown by their SMILES.

In this experiment the target is Recombinant Human Poly(ADP-Ribose) Polymerase (PARP), PARP-1 (Homo sapiens (Human), UniProt P09874). As to conditions: read-out: PARP-1 (Ki); Table 1; text calls the values EC50s.
Recombinant Human Poly(ADP-Ribose) Polymerase (PARP), PARP-1, sequence (P09874 whole entry): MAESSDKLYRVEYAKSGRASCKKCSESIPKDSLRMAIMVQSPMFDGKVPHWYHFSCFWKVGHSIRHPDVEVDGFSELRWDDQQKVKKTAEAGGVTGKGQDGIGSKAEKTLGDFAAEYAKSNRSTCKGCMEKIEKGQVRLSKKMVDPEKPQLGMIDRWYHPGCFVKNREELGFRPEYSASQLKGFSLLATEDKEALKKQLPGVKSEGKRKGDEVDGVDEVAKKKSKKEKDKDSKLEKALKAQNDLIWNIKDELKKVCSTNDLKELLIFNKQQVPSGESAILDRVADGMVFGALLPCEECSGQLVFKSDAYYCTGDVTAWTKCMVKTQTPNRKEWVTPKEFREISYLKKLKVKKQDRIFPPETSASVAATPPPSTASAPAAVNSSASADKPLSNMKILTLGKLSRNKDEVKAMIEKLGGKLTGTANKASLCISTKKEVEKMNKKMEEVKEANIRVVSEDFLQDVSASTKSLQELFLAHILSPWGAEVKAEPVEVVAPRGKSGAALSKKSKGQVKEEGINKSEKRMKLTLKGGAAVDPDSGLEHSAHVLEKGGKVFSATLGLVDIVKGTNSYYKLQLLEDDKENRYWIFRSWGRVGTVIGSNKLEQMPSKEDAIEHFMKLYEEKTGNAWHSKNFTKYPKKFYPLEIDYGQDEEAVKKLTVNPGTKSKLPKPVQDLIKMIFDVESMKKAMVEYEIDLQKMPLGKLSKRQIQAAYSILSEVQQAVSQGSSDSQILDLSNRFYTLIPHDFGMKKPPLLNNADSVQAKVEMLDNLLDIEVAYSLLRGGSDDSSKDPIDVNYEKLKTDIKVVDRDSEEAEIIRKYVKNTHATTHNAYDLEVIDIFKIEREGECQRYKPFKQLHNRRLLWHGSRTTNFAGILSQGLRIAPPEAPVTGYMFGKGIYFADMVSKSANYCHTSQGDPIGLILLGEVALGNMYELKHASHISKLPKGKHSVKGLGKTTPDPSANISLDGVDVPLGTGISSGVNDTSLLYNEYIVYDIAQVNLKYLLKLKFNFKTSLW
For the molecule `CCc1ccc(C(=O)Nc2cccc(Cc3n[nH]c(=O)c4c3CCCC4)c2)cc1` [Example 177, 4-ethyl-N-(3-((4-oxo-3,4,5,6,7,8-hexahydrophthalazin-1-yl)methyl)phenyl)benzamide], the Ki amounted to 156 nM. Take `Cc1c(F)cccc1C(=O)Nc1cccc(Cc2n[nH]c(=O)c3c2CCCC3)c1` [Example 178, 3-fluoro-2-methyl-N-(3-((4-oxo-3,4,5,6,7,8-hexahydrophthalazin-1-yl)methyl)phenyl)benzamide]: the Ki is 462 nM. To `Cc1ccc(F)cc1C(=O)Nc1cccc(Cc2n[nH]c(=O)c3c2CCCC3)c1` [Example 179, 5-fluoro-2-methyl-N-(3-((4-oxo-3,4,5,6,7,8-hexahydrophthalazin-1-yl)methyl)phenyl)benzamide] belongs 238 nM. Under `Cc1ccc(C(=O)Nc2cccc(Cc3n[nH]c(=O)c4c3CCCC4)c2)cc1F` [Example 180, 3-fluoro-4-methyl-N-(3-((4-oxo-3,4,5,6,7,8-hexahydrophthalazin-1-yl)methyl)phenyl)benzamide] stands 159 nM.

Turning to `O=C(Nc1cccc(Cc2n[nH]c(=O)c3c2CCCC3)c1)c1cccc(F)c1F` [Example 181, 2,3-difluoro-N-(3-((4-oxo-3,4,5,6,7,8-hexahydrophthalazin-1-yl)methyl)phenyl)benzamide], the Ki stood at 212 nM. With `O=C(Nc1cccc(Cc2n[nH]c(=O)c3c2CCCC3)c1)c1ccc(F)cc1F` [Example 182, 2,4-difluoro-N-(3-((4-oxo-3,4,5,6,7,8-hexahydrophthalazin-1-yl)methyl)phenyl)benzamide], the Ki stood at 292 nM.

Consider `O=C(Nc1cccc(Cc2n[nH]c(=O)c3c2CCCC3)c1)c1cc(F)ccc1F` [Example 183, 2,5-difluoro-N-(3-((4-oxo-3,4,5,6,7,8-hexahydrophthalazin-1-yl)methyl)phenyl)benzamide], for which the Ki is 166 nM. To `O=C(Nc1cccc(Cc2n[nH]c(=O)c3c2CCCC3)c1)c1cc(F)cc(F)c1` [Example 184, 3,5-difluoro-N-(3-((4-oxo-3,4,5,6,7,8-hexahydrophthalazin-1-yl)methyl)phenyl)benzamide] belongs 154 nM.

`CCCc1ccc(C(=O)Nc2cccc(Cc3n[nH]c(=O)c4c3CCCC4)c2)cc1` [Example 185, N-(3-((4-oxo-3,4,5,6,7,8-hexahydrophthalazin-1-yl)methyl)phenyl)-4-propylbenzamide]: the Ki came out at 250 nM. Take `CC(C)c1ccc(C(=O)Nc2cccc(Cc3n[nH]c(=O)c4c3CCCC4)c2)cc1` [Example 186, 4-isopropyl-N-(3-((4-oxo-3,4,5,6,7,8-hexahydrophthalazin-1-yl)methyl)phenyl)benzamide]: the inhibitory constant (Ki) is 160 nM. `CCOc1ccccc1C(=O)Nc1cccc(Cc2n[nH]c(=O)c3c2CCCC3)c1` [Example 187, 2-ethoxy-N-(3-((4-oxo-3,4,5,6,7,8-hexahydrophthalazin-1-yl)methyl)phenyl)benzamide]: the Ki was 1250 nM. To `CC(C)Oc1ccc(C(=O)Nc2cccc(Cc3n[nH]c(=O)c4c3CCCC4)c2)cc1` [Example 188, 4-isopropoxy-N-(3-((4-oxo-3,4,5,6,7,8-hexahydrophthalazin-1-yl)methyl)phenyl)benzamide] belongs 185 nM; to `CCN(CC)c1ccc(C(=O)Nc2cccc(Cc3n[nH]c(=O)c4c3CCCC4)c2)cc1` [Example 189, 4-(diethylamino)-N-(3-((4-oxo-3,4,5,6,7,8-hexahydrophthalazin-1-yl)methyl)phenyl)benzamide], 175 nM; to `CCCCOc1ccc(C(=O)Nc2cccc(Cc3n[nH]c(=O)c4c3CCCC4)c2)cc1` [Example 190, 4-butoxy-N-(3-((4-oxo-3,4,5,6,7,8-hexahydrophthalazin-1-yl)methyl)phenyl)benzamide], 263 nM. Take `O=C(Nc1cccc(Cc2n[nH]c(=O)c3c2CCCC3)c1)c1cc(C(F)(F)F)ccc1F` [Example 191, 2-fluoro-N-(3-((4-oxo-3,4,5,6,7,8-hexahydrophthalazin-1-yl)methyl)phenyl)-5-(trifluoromethyl)benzamide]: the Ki was determined as 31 nM. On to `O=C(Nc1cccc(Cc2n[nH]c(=O)c3c2CCCC3)c1)c1ccco1` [Example 193, N-(3-((4-oxo-3,4,5,6,7,8-hexahydrophthalazin-1-yl)methyl)phenyl)-2-furamide], for which the Ki turned out to be 100 nM.

For `O=C(Nc1cccc(Cc2n[nH]c(=O)c3c2CCCC3)c1)c1ccoc1` [Example 194, N-(3-((4-oxo-3,4,5,6,7,8-hexahydrophthalazin-1-yl)methyl)phenyl)-3-furamide], the inhibitory constant (Ki) stood at 61 nM. For `Cc1cc(C(=O)Nc2cccc(Cc3n[nH]c(=O)c4c3CCCC4)c2)c(C)o1` [Example 195, 2,5-dimethyl-N-(3-((4-oxo-3,4,5,6,7,8-hexahydrophthalazin-1-yl)methyl)phenyl)-3-furamide], the inhibitory constant (Ki) turned out to be 177 nM. `O=C(Nc1cccc(Cc2n[nH]c(=O)c3c2CCCC3)c1)c1cccs1` [Example 196, N-(3-((4-oxo-3,4,5,6,7,8-hexahydrophthalazin-1-yl)methyl)phenyl)thiophene-2-carboxamide]: the inhibition constant Ki was found to be 286 nM. Take `O=C(Nc1cccc(Cc2n[nH]c(=O)c3c2CCCC3)c1)c1ccsc1` [Example 197, N-(3-((4-oxo-3,4,5,6,7,8-hexahydrophthalazin-1-yl)methyl)phenyl)thiophene-3-carboxamide]: the inhibition constant (Ki) was determined as 146 nM.

Take `Cc1ccsc1C(=O)Nc1cccc(Cc2n[nH]c(=O)c3c2CCCC3)c1` [Example 198, 3-methyl-N-(3-((4-oxo-3,4,5,6,7,8-hexahydrophthalazin-1-yl)methyl)phenyl)thiophene-2-carboxamide]: the inhibitory constant (Ki) is 403 nM. On to `Cc1ccc(C(=O)Nc2cccc(Cc3n[nH]c(=O)c4c3CCCC4)c2)s1` [Example 199, 5-methyl-N-(3-((4-oxo-3,4,5,6,7,8-hexahydrophthalazin-1-yl)methyl)phenyl)thiophene-2-carboxamide], for which the Ki amounted to 196 nM.

Turning to `O=C(Nc1cccc(Cc2n[nH]c(=O)c3c2CCCC3)c1)c1ccc[nH]1` [Example 200], the Ki was 158 nM. In the case of `Cn1cccc1C(=O)Nc1cccc(Cc2n[nH]c(=O)c3c2CCCC3)c1` [Example 201, 1-methyl-N-(3-((4-oxo-3,4,5,6,7,8-hexahydrophthalazin-1-yl)methyl)phenyl)-1H-pyrrole-2-carboxamide], the inhibitory constant (Ki) was 570 nM. Consider `Cc1cc(C(=O)Nc2cccc(Cc3n[nH]c(=O)c4c3CCCC4)c2)c(C)[nH]1` [Example 202, 2,5-dimethyl-N-(3-((4-oxo-3,4,5,6,7,8-hexahydrophthalazin-1-yl)methyl)phenyl)-1H-pyrrole-3-carboxamide], for which the Ki worked out at 93 nM. As for `O=C(Nc1cccc(Cc2n[nH]c(=O)c3c2CCCC3)c1)c1nccs1` [Example 204, N-(3-((4-oxo-3,4,5,6,7,8-hexahydrophthalazin-1-yl)methyl)phenyl)-1,3-thiazole-2-carboxamide], the Ki was 203 nM.

Turning to `O=C(Nc1cccc(Cc2n[nH]c(=O)c3c2CCCC3)c1)c1cscn1` [Example 205, N-(3-((4-oxo-3,4,5,6,7,8-hexahydrophthalazin-1-yl)methyl)phenyl)-1,3-thiazole-4-carboxamide], the Ki was 176 nM. Regarding `O=C(Nc1cccc(Cc2n[nH]c(=O)c3c2CCCC3)c1)c1cncs1` [Example 206, N-(3-((4-oxo-3,4,5,6,7,8-hexahydrophthalazin-1-yl)methyl)phenyl)-1,3-thiazole-5-carboxamide], the Ki came out at 18 nM.

Consider `O=C(Nc1cccc(Cc2n[nH]c(=O)c3c2CCCC3)c1)c1ccno1` [Example 208, N-(3-((4-oxo-3,4,5,6,7,8-hexahydrophthalazin-1-yl)methyl)phenyl)isoxazole-5-carboxamide], for which the Ki was 22 nM. Regarding `Cc1noc(C)c1C(=O)Nc1cccc(Cc2n[nH]c(=O)c3c2CCCC3)c1` [Example 209, 3,5-dimethyl-N-(3-((4-oxo-3,4,5,6,7,8-hexahydrophthalazin-1-yl)methyl)phenyl)isoxazole-4-carboxamide], the Ki worked out at 395 nM.

With `O=C(Nc1cccc(Cc2n[nH]c(=O)c3c2CCCC3)c1)c1ccncc1` [Example 211, N-(3-((4-oxo-3,4,5,6,7,8-hexahydrophthalazin-1-yl)methyl)phenyl)isonicotinamide], the Ki came out at 98 nM. `O=C(Nc1cccc(Cc2n[nH]c(=O)c3c2CCCC3)c1)c1ncccc1O` [Example 212, 3-hydroxy-N-(3-((4-oxo-3,4,5,6,7,8-hexahydrophthalazin-1-yl)methyl)phenyl)pyridine-2-carboxamide]: the Ki amounted to 65 nM. `O=C(Nc1cccc(Cc2n[nH]c(=O)c3c2CCCC3)c1)c1cccnc1O` [Example 213, 2-hydroxy-N-(3-((4-oxo-3,4,5,6,7,8-hexahydrophthalazin-1-yl)methyl)phenyl)nicotinamide]: the Ki is 82 nM. Turning to `O=C(Nc1cccc(Cc2n[nH]c(=O)c3c2CCCC3)c1)c1ccc(O)nc1` [Example 214, 6-hydroxy-N-(3-((4-oxo-3,4,5,6,7,8-hexahydrophthalazin-1-yl)methyl)phenyl)nicotinamide], the Ki amounted to 7 nM.

Take `O=C(Cc1ccccn1)Nc1cccc(Cc2n[nH]c(=O)c3c2CCCC3)c1` [Example 215, N-(3-((4-oxo-3,4,5,6,7,8-hexahydrophthalazin-1-yl)methyl)phenyl)-2-pyridin-2-ylacetamide]: the Ki is 85 nM.

Take `O=C(Cc1cccnc1)Nc1cccc(Cc2n[nH]c(=O)c3c2CCCC3)c1` [Example 216, N-(3-((4-oxo-3,4,5,6,7,8-hexahydrophthalazin-1-yl)methyl)phenyl)-2-pyridin-3-ylacetamide]: the Ki came out at 82 nM. Under `Cc1cnc(C(=O)Nc2cccc(Cc3n[nH]c(=O)c4c3CCCC4)c2)cn1` [Example 217, 5-methyl-N-(3-((4-oxo-3,4,5,6,7,8-hexahydrophthalazin-1-yl)methyl)phenyl)pyrazine-2-carboxamide] stands 5 nM. Under `O=C(Nc1cccc(Cc2n[nH]c(=O)c3c2CCCC3)c1)c1c[nH]c2ccccc12` [Example 218, N-(3-((4-oxo-3,4,5,6,7,8-hexahydrophthalazin-1-yl)methyl)phenyl)-1H-indole-3-carboxamide] stands 86 nM. As to `Cc1c(C(=O)Nc2cccc(Cc3n[nH]c(=O)c4c3CCCC4)c2)cnn1-c1ccccc1` [Example 219], the Ki was found to be 9 nM.
